Results reported in patent publication EP0152799A1, “Compounds having peripheral calcium antagonist, anticonvulsive and eumetabolic activity, processes for the preparation thereof and pharmaceutical compositions containing them” (PULITZER ITALIANA S.p.A., priority 1984, dated 1985).

Experiments:
cerebral district = assay: Cerebral perfusion in the rabbit (cerebral vasodilative activity); type: in vivo; settings: 0.9 uM i.a.; for Area mm^2 / Difference in pressure / Δ: perfusion of the cerebral district
Experimental: The cerebral vasodilative activity of PU 122 in comparison with Flunarizine was tested by the method of the cerebral perfusion in the rabbit according to the procedure of Von P. Vaupel e H. Hutten (1980), by measurement of the decrease of the peripheral resistances in the cerebral district.
Said changement was determined by means of a transducer, by measuring the hematic pressure at the cerebral level and scoring the lasting of action of the compound under test.
The two test compounds were administered by intraarterial route at the dosage of 0.9 uM, in a volume of 0.2 ml for each animal.

Rat hind quarters = Rat hind quarters perfused with hyperkaliemic tyrode (vasodilative activity); settings: 5 x 10^-5 M; for Perfusion pressure after 10' / Perfusion pressure basal: hyperkaliemic tyrode; for Perfusion pressure Δ: basal minus after 10'
Source text: The vasodilative activity of PU 122 in comparison with Flunarizine was further evaluated according to the procedure described by F.N. Fastier and F.H. Smirk, (J. Pharm. Exp. Therap. 89, 256-270; […]), by measuring the antagonist action of the test compound against hyperkaliemia induced vasoconstric- tion.
The compounds under test were used at 5.10^-5 M concentration.

[1] = test system: human platelet rich plasma (PRP); assay: Platelet aggregation induced by ADP; type: cell-based; settings: compared with acetylsalicylic acid
Experimental: The inhibitory effect on platelet aggregation induced BY ADP on human platelet rich plasma (PRP) was evaluated for PU 122 in comparison with acetylsalicy lie acid, according to the procedure described by G.V.R. Born (Nature, 194, 927; 1962).

rat brain synaptosomes = assay: 45 Ca uptake in synaptosomial preparations (Ca antagonist activity); type: biochemical; settings: concentration not given

SMILES	Lasting of the effect (cerebral district)	Area mm^2 (cerebral district)	Difference in pressure (cerebral district)	Δ (cerebral district)	Perfusion pressure after 10' (Rat hind quarters)	Perfusion pressure Δ (Rat hind quarters)	Perfusion pressure basal (Rat hind quarters)	IC50 platelet antiaggregating activity [1]	Ca antagonist activity (effect on 45 Ca uptake) (rat brain synaptosomes)
Fc1ccc(C(c2ccc(F)cc2)N2CCN(C/C=C/c3ccccc3)CC2)cc1 [Flunarizine, reference compound]	12.50 min	314.2 mm^2	10.25	25.12	95.00	80.00	175.00		
COc1ccc(C=CCN2CCN(C(c3ccc(F)cc3)c3ccc(F)cc3)CC2)cc1OC.Cl.Cl [PU 122, 1-(4,4'-Difluorobenzhydryl)-4-(3,4-dimethoxycinnamyl)piperazine dihydrochloride]	16.70 min	487.14 mm^2	18.75	29.17	90.00	105.00	195.00	substan tially better than that of acetylsalicylic acid	-16.4%
